# Laboratory results from patent US9326970B2, “Choline esters” (Encore Health, LLC, priority 2009, dated 2016).
# Experiments:
# [1] = system: protein disulfides in the mouse lenses; test: Decrease in disulfide bonds: protein SH/SS groups in lens homogenates
# Description: FIG. 5 depicts a scattergram of the percent of the total protein SH groups in disulfide bonds. Free SH groups were alkylated with 4-acetamido-4′-maleimidylstilbene-2,2′-sulfonic acid (c, 1 μM, 5 μM, 9.6 μM, 50 μM, 96 μM) or 7-diethylamino-3-(4′maleimidylphenyl)-4-methyl coumarin (500 μM, and 500 μM c). Following removal of the first alkylating agent, the S—S bonds were reduced and alkylated with fluorescein-5-maleimide. Absorption spectra were used to calculated total protein (A280 nm), free protein SH (A322 or A384), and protein SS (A490) using the appropriate extinction coefficients. The symbol ‡ indicates statistically significant difference of mean with mean of control (c, p≦0.05).
# Mouse lenses were homogenized in a denaturing buffer containing a fluorescent alkylating agent to modify the free SH groups. After removing the alkylating agent homogenates were reduced and alkylated with a different fluorescent alkylating agent. Absorption spectra of the modified proteins were used to calculate free protein SH and protein SS groups.
# [2] = system: human umbilical vein endothelial cells (HUVEC, first passage); test: In vitro toxicology: cell viability (MultiTox-Fluor or Live/Dead assay); assay type: cell-based; conditions: doses ranging from 0.1 μM to 100 μM
# Description: Cell viability was determined using human umbilical vein endothelial cells (HUVEC, first passage). Cells were treated with the active agent in doses ranging from 0.1 μM to 100 μM. The number of live and dead cells was determined using the MultiTox-Fluor assay (Promega) or Live/Dead® assay (Invitrogen). Logistic plots were used to determine the compound's LD50 value. Lipoic acid was not cytotoxic the concentration range.
# mouse lenses = test: Increase in elasticity: lens organ culture, change in lens diameter under coverslip (ΔD)
# Excerpt: FIG. 4 depicts a scatter plot of the change in ΔD (micrometers) in the absence (control) and presence of lipoic acid in lens organ culture experiments. […] Statistical values are highly significant at p<0.0001 by unpaired t-test and by Kruskal Wallis test, which compared medians of each data set. The relative change in Young's modulus (E) can be calculated as the cubic value derived from the ΔD of the control divided by the ΔD of the experimental or E fractional change=(ΔD con/ΔDexp)^3.
# Increase in Elasticity: Pairs of mouse lenses were incubated in medium 200 supplemented with an antibiotic, an antimycotic, the presence or absence of lipoic acid (concentrations ranging from 0.5 μM to 500 μM) for 8-15 hours. Each lens was removed from medium, weighed, and photographed on a micrometer scale. A coverslip of known weight (0.17899±0.00200 g) was placed on the lens, and the lens was photographed again on the micrometer scale. The diameter of each lens with and without the coverslip was determined from the photographs. The change in lens diameter produced by the force (coverslip) was computed ΔD=(Dwithcoverslip−Dwithoutcoverslip).
structure (smiles),measurement,setting,value
"O=C(O)CCCCC1CCSS1 (centres unmarked) [Lipoic acid, 5-(1,2-dithiolan-3-yl)pentanoic acid]","percent of the total protein SH groups in disulfide bonds, FIG. 5","[1]; 500 μM lipoic acid vs 500 μM control, p=0.027",significantly different
same,protein disulfides,"[1]; lipoic acid at concentrations ≧9.6 μM, mouse lenses with a significant increase in ΔD",statistically significant decrease in protein disulfides
same,"cytotoxicity (cell viability, LD50 from logistic plots)",[2],not cytotoxic
same,"change in ΔD (micrometers) compared to controls, FIG. 4","mouse lenses; lens organ culture, data sets marked ‡, p<0.0001 by unpaired t-test and Kruskal Wallis test",significantly larger changes in ΔD
same,change in ΔD (lens diameter with coverslip minus without),"mouse lenses; lipoic acid at concentrations ≧9.6 μM, 8-15 hours incubation, vs control, p<0.0001",statistically significant increase in ΔD
